Patent US7230094B2, “Neutral sphingomyelinase antisense ribozyme and uses thereof” (priority 2001, dated 2007)

What was measured:
Assay type in all cases: cell-based, human
N-SMase = assay: TNF-α and Fas ligand induced N-SMase activity in WT and mutant cells; conditions: for N-SMase activity under cytokine stimulation: sham-transfected cells stimulated with TNF-α and Fas-L, basal 2.7
Experimental: FIGS. 4A–4B depict the effects of incubation with TNF-α (FIG. 4A) and Fas ligand (FIG. 4B) over time on the activity of N-SMase in mutant and WT cells. Confluent cultures of WT (MG-63) and mutant (CC) cells were incubated with serum free medium with or without TNF-α ([…]) or Fas ligand (1 ng/ml). At the indicated intervals, cells were harvested, centrifuged, and lysed in buffer containing 0.1% Triton™ X-100, 25 mM Tris (pH 7.4), 5 mM EDTA, 1 mM phenylmethylsulfonyl fluoride (PMSF), and 2 μg each of chymostatin, leupeptin, antipain, and pepstatin A. 100 μl of a reaction mixture containing 50 mM Tris (pH 7.4), 5 mM MgCl2, 0.05% Triton™ X-100, 5 mM dithiothreitol (DTT) and 10 nmol [^14C] sphingomyelin (100,000 cpm) was added to 5–10 μl of cell lysate (100 μg protein). The basal activity of N-SMase was 2.7±0.1 nmol/mg protein/hr in MG63 cells and 0.67±0.1 nmol/mg protein/hr in CC cells. These levels were defined as 100% activity. Error bars indicate ±S.D. (N=3).
Tumor necrosis factor alpha (TNF-α) is known to induce programmed cell death through stimulation of sphingomyelinase activity and generation of ceramide. This example describes the ability of the ribozyme directed against N-SMase to inhibit this pathway. The effects of incubation with TNF-α and Fas ligand over time on the activity of N-SMase in mutant and WT cells are shown in FIGS. 4A and 4B, respectively. Confluent cultures of WT (MG-63) and mutant (CC) cells were incubated with serum free medium with or without TNF-α ([…]) or Fas ligand (1 ng/ml), and the activity of N-SMase was determined by measuring the cleavage of [^14C]sphingomyelin. At 0, 10, 20, 30, 40, 50, and 60 minutes, cells were harvested, centrifuged, and lysed in buffer containing 0.1% Triton™ X-100, 25 mM Tris (pH 7.4), 5 mM EDTA, 1 mM phenylmethylsulfonyl fluoride (PMSF), and 2 μg each of chymostatin, leupeptin, antipain, and pepstatin A. 100 μl of a reaction mixture containing 50 mM Tris (pH 7.4), 5 mM MgCl2, 0.05% Triton™ X-100, 5 mM dithiothreitol (DTT) and 10 nmol [^14C]sphingomyelin (100,000 cpm) was added to 5–10 μl of cell lysate (100 μg protein). The basal activity of N-SMase was 2.7±0.1 nmol/mg protein/hr in MG63 cells and 0.67±0.1 nmol/mg protein/hr in CC cells. These levels were defined as 100% activity.

[1] = test system: ceramide production by N-SMase; assay: Ceramide level, modified diacylglycerol kinase assay; conditions: sham-transfected cells stimulated with TNF-α and Fas-L
MG-63 cells [2] = assay: Apoptosis by DAPI staining and counting of apoptotic cells; conditions: for Increase in apoptosis assessed by DAPI staining: sham-transfected cells; for Increase in apoptosis compared to untreated cells: N-SMase-deficient (ribozyme) cells treated with C2 ceramide
Experimental: FIG. 6 depicts a quantitative analysis of the effects of TNF-α, C2-Ceramide and Fas-ligand on apoptosis in mutant (CC) and WT (MG-63) cells, as well as wild type/mock transfected cells. Cells were grown on glass cover slips and incubated for 24 hours with TNF-α (20 ng/ml), cell-permeable ceramide (C2-Ceramide) (10 ng/ml) or Fas-L (1 ng/ml). Cells were fixed and stained with DAPI and photographed at 50× magnification. Apoptotic cells were counted using a hemocytometer. The basal levels of apoptotic cells were: MG-63 (3%); L-3 (3%); and CC (2.8%). Errors bars indicate ±S.D. (N=2).
WT (MG-63), LacZ (L-3) and mutant (CC) cells were grown on glass cover slips and incubated for 24 hr with TNF-α (20 ng/ml), cell-permeable ceramide (C2-ceramide) (10 ng/ml) or Fas-L (1 ng/ml). Cells were fixed and stained with DAPI stain and photographed (50×). Apoptotic cells were counted using a hemocytometer and compared to total cell counts per field. Basal levels of apoptosis were 3% untransfected, 3% control transfection, and 2.8% ribozyme transfection.

[3] = test system: caspase-3 and cytochrome-C release; assay: Caspase-3 and cytochrome-C release by western analysis and densitometry; conditions: control (sham-transfected) cells
Experimental: In order to determine a dose-response relationship between the concentration of TNF-α or FasL and apoptosis, western analysis was used to quantitate release of both caspase-3 (FIG. 9) and cytochrome-C (FIG. 10).
Immunoblots for the measurement of cytochrome-C and caspase-3 were carried out after incubation of cells with TNF-α (10 ng/ml) or FasL (1 ng/ml) for 48 hours. Cells were extracted with a buffer (20 mM Hepes pH 7.5, 10 mM KCl, 1.5 mM MgCl2, 5 mM EDTA, 5 mM DTT, 2 mM phenylmethylsulfonylfluoride, 1% NonidetP40, 0.5% sodium deoxycholate, 0.1% SDS, 2 μg/ml leupeptin, 2 μg/ml aprotinin, 0.5 μg/ml benzamindine, and 250 mM sucrose) on ice for 30 minutes. After centrifugation for 10 minutes at 10,000×g, the supernatant was used for western analysis with an antibody for cytochrome-C (Pharmingen, San Diego, Calif.). For assessment of caspase-3, samples were similarly processed in addition to passage through a 21-g needle prior to centrifugation. The western analysis was performed with a rabbit polyclonal IgG antibody to caspase-3 (Santa Cruz, Calif.) raises against an epitope corresponding to amino acids 1–277, representing the full-length precursor form of CPP-32 (caspase-3). For both caspase-3 and cytochrome-C, bands were quantified with densitometric analysis.

MG-63 cells [4] = assay: Cell viability by trypan blue staining; conditions: control cells, TNF-α in various concentrations, 24 hours
Experimental: FIG. 8 depicts the effect of TNF-α on viability of wild type, ribozyme transfected and wild type/mock transfected cells. Cells ([…]) were seeded in 96 well sterile plastic trays. Upon confluence medium was replaced with serum free minimum essential medium and TNF-α (20 ng/ml). After incubation for 24 h at 37° C., viability of cells were determined by Trypan blue staining. The results represent ±S.D. of three experiments.
The population of viable cells was determined using trypan blue staining. Cells (10^4) were seeded in 96 well plates. Twenty-four hours later, the media was replaced with serum-free MEM, and TNF-α in various concentrations was added. After incubation for 24 hours at 37° C., the cells were trypsinized, and viable cells were counted after staining with trypan blue. Values were compared to the original cell count (10^4) and expressed as a percentage.

| Molecule | N-SMase activity under cytokine stimulation (N-SMase) | Increase in ceramide production [1] | Increase in apoptosis assessed by DAPI staining (MG-63 cells [2]) | Dose-response of caspase-3 and cytochrome-C release [3] | Increase in apoptosis compared to untreated cells (MG-63 cells [2]) | Increase in apoptosis compared to untreated cells (MG-63 cells [2]; listed as C2-ceramide) | Peak N-SMase activity relative to unstimulated cells (N-SMase; control transfected clones, 10 minutes after addition of TNF-α) | DAPI staining (MG-63 cells [2]; control-transfected cells, TNF-α 20 ng/ml for 24 hours, compared to untransfected cells) | Decline in population of viable cells (MG-63 cells [4]) |
| --- | --- | --- | --- | --- | --- | --- | --- | --- | --- |
| Fas ligand: ligand for Fas/Apo-1 (CD95), used as apoptosis agonist [reference compound] | 4.0 nmol/mg protein/hr | about 2 fold | about 4 fold | linear dose-response relationship | – | – | – | – | – |
| CCCCCCCCCCCCC/C=C/[C@@H](O)[C@H](CO)NC(C)=O [C2 ceramide] | – | – | – | – | about 2.5 fold | greater than two-fold increase | – | – | – |
| Tumor necrosis factor alpha [TNF-α, reference compound] | 4.0 nmol/mg protein/hr | about 2 fold | about 4 fold | linear dose-response relationship | – | – | 140% | 490% | prompt decline |
